Reference: patent publication US20190290574A1, “TOPICAL SKIN CARE COMPOSITIONS COMPRISING MYRSINE AFRICANA EXTRACTS” (University of Pretoria, priority 2015, published 2019)
Read-outs that look alike come from different tables or passages of the source.

How the values were obtained:
human skin = experiment: Irritancy patch test
Protocol: A sample of the ethanol extract was applied on the inner forearm of twenty (20) volunteers aged between 19-65 years using patch discs for 24 hours to determine irritancy. Visual assessments of the areas were made after 24, 48, 72 and 96 hours. Any reaction was graded as a score of 0, 0.5, 1, 2, 3, and 4, where 0 represented a no response and 4 a fiery redness, papules, oedema or bullae. The forearm of each volunteer included a positive control of sodium lauryl sulphate solution (1 g/100 mL) and a negative control of demineralised water.

[1] = biological target: T1, porcine pancreatic elastase (Sus scrofa, UniProt P00772); experiment: Elastase inhibition assay (release of p-nitroaniline from N-Succinyl-Ala-Ala-Ala-p-nitroanilide); format: biochemical; conditions: for inhibition at 5 µg/mL: 5 μg/mL; for inhibition at 10 µg/mL: 10 μg/mL; for inhibition at 25 µg/mL: 25 μg/mL; for inhibition at 50 µg/mL: 50 μg/mL; for IC50: read-out: IC50 (μg/mL) (95% Confidence Interval) (converted)
T1 construct: purchased Sigma E0258; host or cells: porcine pancreas (tissue-derived product)
Protocol: The pancreatic elastase inhibitory activity was determined in vitro by the spectrophotometric determination of the release of p-nitroaniline from a synthetic substrate N-Succinyl-Ala-Ala-Ala-p-nitroanilide.
A sample stock solution of 500 μg/mL and 1120 μg/mL was prepared from M. africana leaf extract and compound respectively. Briefly, 2.5 mg of extract and 2.24 mg of the compound was weighed and dissolved in 100 μL of methanol. The volume was then made up to 5 mL for the extract and to 2 mL for the compound with 100mM Tris-HCl buffer, pH 8.0. Subsequent dilutions for the assay were made as required.
An elastase inhibition assay was carried out largely as per the method of Bieth et al. (1974) with modifications. In brief, a pre-incubation mixture contained 100 mM of either Tris-HCl buffer (pH 8.0), vehicle buffer, positive control, or test sample of various concentrations together with 4.942 mU of elastase enzyme. The reagents were mixed and the mixture was pre-incubated at 37° C. for 15 min. Following pre-incubation, substrate (N-Succinyl-Ala-Ala-Ala-p-nitroanilide) was added to a final concentration of 0.338 mM and the solution was mixed and incubated at 37° C. for 30 min. The absorbance was measured at 405 nm in a micro-plate reader (Versamax, Molecular devices, USA). A control reaction was carried out without the test sample.
The % inhibition of the enzyme was calculated as follows:
IC50 was calculated using log-probit analysis.

[2] = Compound MA-NR-01 run, read-out: % Inhibition (Mean ± SEM)
[3] = MA ethanolic extract run, read-out: % Inhibition (Mean ± SEM)

T1 sequence (P00772 27-266): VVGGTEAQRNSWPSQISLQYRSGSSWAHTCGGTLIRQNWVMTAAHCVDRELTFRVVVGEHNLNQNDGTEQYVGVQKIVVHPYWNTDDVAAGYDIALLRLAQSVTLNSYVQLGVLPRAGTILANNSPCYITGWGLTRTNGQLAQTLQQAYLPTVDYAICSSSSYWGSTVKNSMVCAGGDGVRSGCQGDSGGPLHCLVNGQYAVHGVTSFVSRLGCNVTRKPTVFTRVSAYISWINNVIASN

Molecule: CCCCCCCCCCCCOS(=O)(=O)[O-].[Na+] [Positive Control Right, sodium lauryl sulphate]
- Number of subjects with reactions after 48 hours (human skin; 20 volunteers, 48 hours): 12
- Irritancy (human skin; patch test on human subjects): Irritant
- Average value (human skin; patch test, 20 volunteers, results after 96 hours): 0.54
- Average score (human skin; patch test, score scale 0-4, results after 96 hours): 1.03
- Irritancy potential % (TP-NC)/(PC-NC) (human skin; relative to positive control sodium lauryl sulphate and negative control water): 100%

Molecule: C[C@H]1[C@H](C)CC[C@]2(C(=O)O)CC[C@]3(C)C(=CC[C@@H]4[C@@]5(C)CC[C@H](O)C(C)(C)[C@@H]5CC[C@]43C)[C@H]12 [Ursolic Acid, ursolic acid]
- inhibition at 2.5 µg/mL ([1]; 2.5 μg/mL, Compound MA-NR-01 run, read-out: % Inhibition (Mean ± SEM)): 10.6 ± 0.32%
- inhibition at 5 µg/mL [1, 2]: 21.1 ± 0.53%
- inhibition at 5 µg/mL [1, 3]: 13.2 ± 2.25%
- inhibition at 10 µg/mL [1, 2]: 40.1 ± 1.22%
- inhibition at 10 µg/mL [1, 3]: 24.1 ± 4.5%
- inhibition at 25 µg/mL [1, 2]: 58.85 ± 0.17%
- inhibition at 25 µg/mL [1, 3]: 41.4 ± 0.92%
- inhibition at 50 µg/mL [1, 2]: 62.1 ± 1.18%
- inhibition at 50 µg/mL [1, 3]: 53.2 ± 0.56%
- IC50 ([1]; run of Compound MA-NR-01 (right half of Table 1)): 45.5 µM
- IC50 ([1]; run of MA ethanolic extract (left half of Table 1)): 88.9 µM

Molecule: Myrsinoside B [MA-NR-01]
- % Inhibition (Mean ± SEM) ([1]; 7.8125 μg/mL, Compound MA-NR-01 run): 11.79 ± 4.35%
- % Inhibition (Mean ± SEM) ([1]; 15.625 μg/mL, Compound MA-NR-01 run): 4.79 ± 1.66%
- % Inhibition (Mean ± SEM) ([1]; 31.25 μg/mL, Compound MA-NR-01 run): 6.76 ± 4.57%
- % Inhibition (Mean ± SEM) ([1]; 62.5 μg/mL, Compound MA-NR-01 run): 5.73 ± 1.04%
- % Inhibition (Mean ± SEM) ([1]; 125 μg/mL, Compound MA-NR-01 run): 13.00±1.04%
- % Inhibition (Mean ± SEM) ([1]; 250 μg/mL, Compound MA-NR-01 run): 25.75 ± 1.46%
- % Inhibition (Mean ± SEM) ([1]; 500 μg/mL, Compound MA-NR-01 run): 31.02 ± 1.22%
